In assay [1] the test system is HDM-challenged BALB/c mice. The assay can be described thus: Lung histology scoring (H&E and PAS) after HDM challenge. Format: in vivo. As to conditions: synergy study, OBE 30 mg/kg, dexamethasone 0.5 mg/kg, alone or combined, score 1-5. As for the experimental part:
(§1) Male BALB/c mice (6-8 weeks old, average weight 25 g) were used in this study. All studies involving animals were in accordance with the ARRIVE guidelines for reporting experiments involving animals. All experimental protocols were approved by the Animal Welfare and Use of Laboratory Animals Committee in the Health Sciences Center, Kuwait University and were carried out in accordance with the EU Directive 2010/63/EU for animal experiments and the National Institutes of Health guide for the care and use of Laboratory animals (NIH Publications No. 8023, revised 1978). Animals were maintained under temperature-controlled conditions with an artificial 12-hour light/dark cycle and were allowed standard chow and water ad libitum.
(§2) Seven treatment groups (A-G, 9-15 animals per group) were established to determine whether OBE, if given prophylactically, inhibits the HDM-induced asthma phenotype. […]
(§3) Twenty-four hours after the last intranasal challenge, half of the animals were sacrificed with an overdose of halothane, bronchoalveolar lavage (BAL) was performed to obtain BAL fluid, and then the lungs were excised in preparation for histology, Western Blot (WB) and immunofluorescence (IF) studies. […] In the other half of the animals, airway responsiveness was measured.

Assay [2] has as its system HDM-challenged BALB/c mice. The experiment in a line: HDM-induced total and differential cell influx in BAL fluid. As to conditions: synergy study, OBE 30 mg/kg i.p., dexamethasone 0.5 mg/kg i.p., alone or combined, mean±SEM. Type of assay: in vivo. As for the experimental part: as §1, §2, §3
Assay [3] relates to HDM-challenged BALB/c mice. The experiment in a line: HDM-induced airway hyperresponsiveness to methacholine (lung resistance). Type of assay: in vivo. The settings on record: dexamethasone 3 mg/kg; 50 mg/ml of methacholine; HDM/vehicle 7.9±0.5. As for the experimental part: Airway responsiveness was measured 24 h after the last HDM or PBS challenge, using a separate set of animals using the Buxco FinePointe series RC site (DSI, Wilmington, NC) as described previously in the literature. Briefly, mice were anesthetized with an intraperitoneal injection of ketamine/xylazine ([…]) cocktail and tracheotomized with a steel 18-gauge cannula. Mice were then mechanically ventilated at a rate of 150 breaths/minute and a tidal volume of 0.15 ml using a computerized small animal ventilator (FinePointe site). Following a 5 min period of stabilization and administration of PBS, airway resistance was measured by exposing mice to aerosolized methacholine (6.25-50.0 mg/ml, 5 μl per delivery) delivered by an aerogen nebulizer and reported as total lung resistance (RL) (cm H2O per ml/sec).
All numerical values were expressed as means±SEM. Total cell counts represent the number of cells/ml of BAL fluid. Differential cell counts represent the absolute number of each cell type/ml of BAL fluid. Absolute RL values were computed and were used as an index of airway responsiveness. For the histopathological assessment, a semi-quantitative 5-level lung pathology score was used to grade the degree of inflammation in each microscopic field at 20×. All data were initially assessed for normality. […]

The next assay deals with pERK1/2 (Thr202/Tyr204). The experiment in a line: Immunofluorescence of lung sections, phosphorylation of ERK1/2. Type of assay: in vivo, mice. The settings on record: synergy study; OBE 30 mg/kg, dexamethasone 0.5 mg/kg, alone or combined; HDM 319.0±10.4. The protocol:
Lung tissues were processed as described above. Immunofluorescence was performed as previously described in the literature. In short, lung sections were incubated in a blocking solution (5% bovine serum albumin (BSA)+0.3% Triton X-100 in PBS) for 1 hour, and were subsequently incubated overnight at 4° C. with primary antibodies [p-EGFR (Tyr1068) (Rabbit; Cat. No. 3777S), pAKT (Ser 473) (Rabbit; Cat. No. 9271L) and pERK1/2 (Thr202/Tyr204) (Rabbit; Cat. No. 9101L) (1:25-1:800 dilution) or only 1% BSA (for negative control); Cell Signaling, USA], diluted in 1% blocking solution. Twenty-four hours later, the sections were washed and incubated with secondary antibody conjugated to Alexa Fluor 555 (Goat anti rabbit SFX kit; Life Technologies, USA, 1:400 dilution) for 2 hours at room temperature in the dark. Following several washes in PBS, the sections were stained with 4′,6-diamidino-2-phenylindole and mounted. Images were then captured on a ZEISS LSM 700 confocal microscope, and fluorescence intensity was estimated in defined fields using an Image J software package. […]
All numerical values were expressed as means±SEM. […] For the histopathological assessment, a semi-quantitative 5-level lung pathology score was used to grade the degree of inflammation in each microscopic field at 20×. All data were initially assessed for normality. […]

The values below come from patent US12673065B2, “Anti-inflammatory composition and method of treatment” (KUWAIT UNIVERSITY, priority 2020, dated 2026).

As to `C[C@@H]1C[C@H]2[C@@H]3CCC4=CC(=O)C=C[C@]4(C)[C@@]3(F)[C@@H](O)C[C@]2(C)[C@@]1(O)C(=O)CO` [dexamethasone], in assay [1] (HDM 4.2±0.2), the mucous intensity score came to 3.0±0.2. Besides, in assay [1] (HDM 4.5±0.2), the cellular infiltration score came out at 3.1±0.3. Further, in assay [2] (HDM/vehicle 3.7±0.3), the “eosinophils in BAL fluid” value is given as 1.3±0.1 ×10^5. Besides, the “total cell count in BAL fluid” value in assay [2] (HDM/vehicle 6.4±0.5) is on record as 4.3±0.2 ×10^5. Besides, the “lung resistance (RL)” value in assay [3] was found to be 5.2±0.8 cm H2O per ml/sec. Also, in the assay with pERK1/2 (Thr202/Tyr204), the “HDM-induced phosphorylation of ERK1/2 (pERK1/2 levels)” value was found to be 264.8±4.9%.
